# From ChEMBL document CHEMBL4765295, “Synthesis, pharmacological profile and 2D-QSAR studies of curcumin-amino acid conjugates as potential drug candidates” (Eur J Med Chem, 2020)
# “And” between values parts separate entries of the source, which are not always exact repeats. Equal entries are not always repeated.
# Experiments:
# Rattus norvegicus [1] = assay: Antiinflammatory activity in Wistar rat model of carrageenan-induced paw edema assessed as reduction in thickness of paw edema at 10 mg/kg, ip pretreated for 1 hr followed by carrageenan challenge and measured after 1 hr (reference value: 2.41 +/-0.05 mm); type: functional; settings: time 1 hr after carrageenan
# Rattus norvegicus [2] = assay: Anti-inflammatory activity in Wistar rat assessed as inhibition of carrageenan-induced paw edema at 10 mg/kg, ip pretreated for 1 hr followed by carrageenan challenge and measured after 1 hr relative to control (reference value: 0.00 +/-0.02 %); type: functional; settings: time 2 hrs
# Rattus norvegicus [3] = assay: Antiinflammatory activity in Wistar rat model of carrageenan-induced paw edema assessed as reduction in thickness of paw edema at 10 mg/kg, ip pretreated for 1 hr followed by carrageenan challenge and measured after 2 hrs (reference value: 2.06 +/-0.09 mm); type: functional; settings: time 3 hrs
# Rattus norvegicus [4] = assay: Anti-inflammatory activity in Wistar rat assessed as inhibition of carrageenan-induced paw edema at 10 mg/kg, ip pretreated for 1 hr followed by carrageenan challenge and measured after 2 hr relative to control (reference value: 0.00 +/-0.03 %); type: functional; settings: time 3 hrs
# Rattus norvegicus [5] = assay: Antiinflammatory activity in Wistar rat model of carrageenan-induced paw edema assessed as reduction in thickness of paw edema at 10 mg/kg, ip pretreated for 1 hr followed by carrageenan challenge and measured after 3 hrs (reference value: 1.79 +/-0.07 mm); type: functional; settings: time 4 hrs
# Rattus norvegicus [6] = assay: Anti-inflammatory activity in Wistar rat assessed as inhibition of carrageenan-induced paw edema at 10 mg/kg, ip pretreated for 1 hr followed by carrageenan challenge and measured after 3 hr relative to control (reference value: 0.00 +/-0.1 %); type: functional; settings: time 4 hrs
# Rattus norvegicus [7] = assay: Antiinflammatory activity in Wistar rat model of carrageenan-induced paw edema assessed as reduction in thickness of paw edema at 10 mg/kg, ip pretreated for 1 hr followed by carrageenan challenge and measured after 4 hrs (reference value: 1.40 +/-0.10 mm); type: functional; settings: time 5 hrs
# Rattus norvegicus [8] = assay: Anti-inflammatory activity in Wistar rat assessed as inhibition of carrageenan-induced paw edema at 10 mg/kg, ip pretreated for 1 hr followed by carrageenan challenge and measured after 4 hr relative to control (reference value: 0.00 +/-0.4 %); type: functional; settings: time 5 hrs
# Rattus norvegicus [9] = assay: Antiinflammatory activity in Wistar rat model of carrageenan-induced paw edema assessed as reduction in thickness of paw edema at 10 mg/kg, ip pretreated for 1 hr followed by carrageenan challenge and measured after 24 hrs (reference value: 0.83 +/-0.08 mm); type: functional; settings: time 25 hrs
# Rattus norvegicus [10] = assay: Anti-inflammatory activity in Wistar rat assessed as inhibition of carrageenan-induced paw edema at 10 mg/kg, ip pretreated for 1 hr followed by carrageenan challenge and measured after 24 hr relative to control (reference value: 0.00 +/-0.3 %); type: functional; settings: time 25 hrs
# Rattus norvegicus [11] = assay: Anti-inflammatory activity in Wistar rat assessed as inhibition of carrageenan-induced paw edema at 10 mg/kg, ip pretreated for 1 hr followed by carrageenan challenge and measured after 4 hr relative to indomethacin; type: functional; settings: time 5 hrs
# Splenocyte [12] = assay: Immunomodulatory activity in Swiss albino mouse splenocytes assessed as cell viability at 10 uM by measuring stimulation index incubated for 72 hrs in presence of mitogenic stimulus phytohaemagglutinin by MTT assay (reference value: 1.00 +/- 0.24); type: functional
# Splenocyte [13] = assay: Immunomodulatory activity in Swiss albino mouse splenocytes assessed as cell viability at 10 uM by measuring inhibition of stimulation index incubated for 72 hrs in presence of mitogenic stimulus phytohaemagglutinin by MTT assay relative to indomethacin; type: functional; settings: read-out: Activity
# Peritoneal macrophage [14] = assay: Antiinflammatory activity in […] mouse Peritoneal macrophages assessed as reduction in LPS-induced NO production by measuring reduction in stimulation index at 10 uM preincubated for 1 hr followed by LPS stimulation measured after 24 hrs by Griess method (reference value: 27.31 +/- 2.56 uM); type: functional; settings: time 25 hrs
# Peritoneal macrophage [15] = assay: Antiinflammatory activity in […] mouse Peritoneal macrophages assessed as inhibition of LPS-induced NO production at 10 uM preincubated for 1 hr followed by LPS stimulation measured after 24 hrs by Griess method relative to control (reference value: 0.0 %); type: functional; set-up: scale not given: the % may be the effect or the level left; settings: time 25 hrs
# Staphylococcus aureus = assay: Antibacterial activity against Staphylococcus aureus ATCC 25923 incubated for 18 hrs by agar dilution method; type: functional
# Streptococcus pyogenes = assay: Antibacterial activity against Streptococcus pyogenes ATCC 19615 incubated for 18 hrs by agar dilution method; type: functional
# Salmonella typhimurium = assay: Antibacterial activity against Salmonella typhimurium ATCC 19430 incubated for 18 hrs by agar dilution assay; type: functional, Salmonella enterica subsp. enterica serovar Typhimurium; settings: Salmonella enterica
# Pseudomonas aeruginosa = assay: Antibacterial activity against Pseudomonas aeruginosa ATCC 27853 incubated for 18 hrs by agar dilution assay; type: functional
# Candida albicans = assay: Antifungal activity against Candida albicans incubated for 18 to 24 hrs by CLSI method; type: functional; settings: time 18-24 hrs
Compound,Activity (Rattus norvegicus [1]),inhibition in vivo at 10 mg/kg (Rattus norvegicus [2]),Activity (Rattus norvegicus [3]),inhibition in vivo at 10 mg/kg (Rattus norvegicus [4]),Activity (Rattus norvegicus [5]),inhibition in vivo at 10 mg/kg (Rattus norvegicus [6]),Activity (Rattus norvegicus [7]),inhibition in vivo at 10 mg/kg (Rattus norvegicus [8]),Activity (Rattus norvegicus [9]),inhibition in vivo at 10 mg/kg (Rattus norvegicus [10]),inhibition in vivo at 10 mg/kg (Rattus norvegicus [11]),Activity_index (Splenocyte [12]),viability at 10 µM (Splenocyte [13]),Activity (Peritoneal macrophage [14]),Activity (Peritoneal macrophage [15]),MIC (Staphylococcus aureus),MIC (Streptococcus pyogenes),MIC (Salmonella typhimurium),MIC (Pseudomonas aeruginosa),MIC (Candida albicans)
COc1cc(/C=C/C(=O)/C=C(O)/C=C/c2ccc(OC(=O)[C@H](CCC(N)=O)NC(=O)OC(C)(C)C)c(OC)c2)ccc1OC(=O)[C@H](CCC(N)=O)NC(=O)OC(C)(C)C,2.16 mm,10%,1.73 mm,16%,1.22 mm,32%,0.83 mm,41%,0.36 mm,57%,47%,2.14,56.6%,21.22 µM,22.29%,0.125 µg/mL and 0.152 µM,0.25 µg/mL and 0.303 µM,0.125 µg/mL and 0.152 µM,1 µg/mL and 1.21 µM,2 µg/mL and 2.42 µM
CC[C@H](C)[C@H](NC(=O)OC(C)(C)C)C(=O)Oc1ccc(/C=C/C(=O)/C=C(O)/C=C/c2ccc(OC(=O)[C@@H](NC(=O)OC(C)(C)C)[C@@H](C)CC)c(OC)c2)cc1OC,1.61 mm,33%,1.27 mm,38%,0.91 mm,49%,0.69 mm,51%,0.49 mm,41%,59%,2.07,58.3%,20.81 µM,23.82%,0.125 µg/mL and 0.157 µM,0.25 µg/mL and 0.314 µM,0.125 µg/mL and 0.157 µM,1 µg/mL and 1.26 µM,2 µg/mL and 2.52 µM
COc1cc(/C=C/C(=O)/C=C(O)/C=C/c2ccc(OC(=O)[C@@H](NC(=O)OC(C)(C)C)C(C)C)c(OC)c2)ccc1OC(=O)[C@@H](NC(=O)OC(C)(C)C)C(C)C,2.09 mm,13%,1.57 mm,24%,1.34 mm,25%,0.8 mm,43%,0.58 mm,30%,49%,1.84,65.6%,19.29 µM,29.35%,0.25 µg/mL and 0.326 µM,2 µg/mL and 2.61 µM,0.25 µg/mL and 0.326 µM,2 µg/mL and 2.61 µM,1 µg/mL and 1.3 µM
